What was measured:
Assay type in all cases: in vivo
Settings in all cases: 250 g/h, evaluated after 13 days, five-point scale
[1] = system: Abutilon theophrasti (ABUTH); assay: Pre-emergence herbicidal glasshouse test, ABUTH
Experimental: (§1) Seeds of a variety of test species are sown in standard soil in pots Amaranthus retoflexus (AMARE), Abutilon theophrasti (ABUTH), Setaria faberi (SETFA), Echinochloa crus-galli (ECHCG), Ipomoea hederacea (IPOHE)). After cultivation for one day (pre-emergence) or after 8 days cultivation (post-emergence) under controlled conditions in a glasshouse (at 24/16° C., day/night; 14 hours light; 65% humidity), the plants are sprayed with an aqueous spray solution derived from the formulation of the technical active ingredient in acetone/water (50:50) solution containing 0.5% Tween 20 (polyoxyethelyene sorbitan monolaurate, CAS RN 9005-64-5). Compounds are applied at 250 g/h unless otherwise indicated. The test plants are then grown in a glasshouse under controlled conditions in a glasshouse (at 24/16° C., day/night; 14 hours light; 65% humidity) and watered twice daily. After 13 days for pre and post-emergence, the test is evaluated for the percentage damage caused to the plant. The biological activities are shown in the following table on a five-point scale (5=80-100%; 4=60-79%; 3=40-59%; 2=20-39%; 1=0-19%).

[2] = system: Echinochloa crus-galli (ECHCG); assay: Post-emergence herbicidal glasshouse test, ECHCG
Experimental: as §1

[3] = system: Abutilon theophrasti (ABUTH); assay: Post-emergence herbicidal glasshouse test, ABUTH
Experimental: as §1

[4] = system: Ipomoea hederacea (IPOHE); assay: Pre-emergence herbicidal glasshouse test, IPOHE
Experimental: as §1

[5] = system: Amaranthus retoflexus (AMARE); assay: Pre-emergence herbicidal glasshouse test, AMARE
Experimental: as §1

[6] = system: Setaria faberi (SETFA); assay: Post-emergence herbicidal glasshouse test, SETFA
Experimental: as §1

[7] = system: Echinochloa crus-galli (ECHCG); assay: Pre-emergence herbicidal glasshouse test, ECHCG
Experimental: as §1

[8] = system: Ipomoea hederacea (IPOHE); assay: Post-emergence herbicidal glasshouse test, IPOHE
Experimental: as §1

[9] = system: Amaranthus retoflexus (AMARE); assay: Post-emergence herbicidal glasshouse test, AMARE
Experimental: as §1

[10] = system: Setaria faberi (SETFA); assay: Pre-emergence herbicidal glasshouse test, SETFA
Experimental: as §1

Compound	percentage damage caused to the plant, PRE Application ABUTH [1]	percentage damage caused to the plant, POST Application ECHCG [2]	percentage damage caused to the plant, POST Application ABUTH [3]	percentage damage caused to the plant, PRE Application IPOHE [4]	percentage damage caused to the plant, PRE Application AMARE [5]	percentage damage caused to the plant, POST Application SETFA [6]	percentage damage caused to the plant, PRE Application ECHCG [7]	percentage damage caused to the plant, POST Application IPOHE [8]	percentage damage caused to the plant, POST Application AMARE [9]	percentage damage caused to the plant, PRE Application SETFA [10]
Cn1nnnc1NC(=O)c1ccc(OC(F)(F)F)c(CNC(=O)c2ccc(Cl)cc2)c1Cl [Compound 1.011]	5 (5=80-100%)	5 (5=80-100%)	5 (5=80-100%)	1 (1=0-19%)	5 (5=80-100%)	2 (2=20-39%)	1 (1=0-19%)	5 (5=80-100%)	5 (5=80-100%)	1 (1=0-19%)
CCCC(=O)NCc1c(OC(F)(F)F)ccc(C(=O)Nc2nnnn2CC)c1Cl [Compound 1.005]	5 (5=80-100%)	–	5 (5=80-100%)	1 (1=0-19%)	5 (5=80-100%)	5 (5=80-100%)	1 (1=0-19%)	5 (5=80-100%)	5 (5=80-100%)	1 (1=0-19%)
Cn1nnnc1NC(=O)c1ccc(OC(F)(F)F)c(CNC(=O)c2c(F)cccc2F)c1Cl [Compound 1.008]	5 (5=80-100%)	5 (5=80-100%)	5 (5=80-100%)	1 (1=0-19%)	5 (5=80-100%)	4 (4=60-79%)	2 (2=20-39%)	5 (5=80-100%)	–	2 (2=20-39%)
CN(Cc1c(OC(F)(F)F)ccc(C(=O)Nc2nnnn2C)c1Cl)C(=O)C1CC1 [Compound 1.002]	3 (3=40-59%)	5 (5=80-100%)	5 (5=80-100%)	1 (1=0-19%)	1 (1=0-19%)	5 (5=80-100%)	2 (2=20-39%)	5 (5=80-100%)	5 (5=80-100%)	2 (2=20-39%)
Cn1nnnc1NC(=O)c1ccc(OC(F)(F)F)c(CNC(=O)c2ccc(F)cc2F)c1Cl [Compound 1.010]	5 (5=80-100%)	5 (5=80-100%)	5 (5=80-100%)	1 (1=0-19%)	5 (5=80-100%)	5 (5=80-100%)	1 (1=0-19%)	5 (5=80-100%)	5 (5=80-100%)	1 (1=0-19%)
CCC(=O)N(C)Cc1c(OC(F)(F)F)ccc(C(=O)Nc2nnnn2C)c1Cl [Compound 1.001]	5 (5=80-100%)	5 (5=80-100%)	5 (5=80-100%)	1 (1=0-19%)	5 (5=80-100%)	5 (5=80-100%)	4 (4=60-79%)	5 (5=80-100%)	5 (5=80-100%)	3 (3=40-59%)
CCC(=O)NCc1c(OC(F)(F)F)ccc(C(=O)Nc2nnnn2C)c1Cl [Compound 1.003, 2-chloro-N-(1-methyltetrazol-5-yl)-3-[(propanoylamino)methyl]-4-(trifluoromethoxy)benzamide]	5 (5=80-100%)	5 (5=80-100%)	–	3 (3=40-59%)	5 (5=80-100%)	5 (5=80-100%)	1 (1=0-19%)	5 (5=80-100%)	5 (5=80-100%)	4 (4=60-79%)
CC(=O)NCc1c(OC(F)(F)F)ccc(C(=O)Nc2nnnn2C)c1Cl [Compound 1.009]	5 (5=80-100%)	5 (5=80-100%)	5 (5=80-100%)	4 (4=60-79%)	5 (5=80-100%)	5 (5=80-100%)	5 (5=80-100%)	5 (5=80-100%)	5 (5=80-100%)	5 (5=80-100%)

Reference: patent US20250221411A1, “SUBSTITUTED BENZAMIDES AS HERBICIDES” (SYNGENTA CROP PROTECTION AG, priority 2021, published 2025)
